In patent US12077503B2, “Substituted cyclic amides and their use as herbicides” (FMC CORPORATION, priority 2015, dated 2024):

Legend:
Format in all cases: in vivo
[1] = test system: barnyardgrass (Echinochloa crus-galli); test: Test G Pre-Emergence Protocol; conditions: Echinochloa crus-galli, pre-emergence, 312 h, evaluated after 13 days
Outline: (§1)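 Seeds were sown in standard soil and kept one day in a glasshouse (24/16° C day/night, 14 h light, 65% humidity), then sprayed with compound in acetone/water (50:50) containing 0.5% Tween 20 at 15.625, 62.5 or 250 g/ha. Damage was scored after 13 days (0 = none, 100 = total).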

corn (Zea mays) [2] = test: Test G Pre-Emergence Protocol; conditions: Zea mays, pre-emergence, 312 h, evaluated after 13 days
Outline: as §1

[3] = test system: giant foxtail (Setaria faberi); test: Test G Pre-Emergence Protocol; conditions: Setaria faberi, pre-emergence, 312 h, evaluated after 13 days
Outline: as §1

[4] = test system: ivy-leaved morning glory (Ipomoea hederacea); test: Test G Pre-Emergence Protocol; conditions: Ipomoea, pre-emergence, 312 h, evaluated after 13 days
Outline: as §1

[5] = test system: redroot pigweed (Amaranthus retroflexus); test: Test G Pre-Emergence Protocol; conditions: Amaranthus retroflexus, pre-emergence, 312 h, evaluated after 13 days
Outline: as §1

[6] = test system: velvetleaf (Abutilon theophrasti); test: Test G Pre-Emergence Protocol; conditions: Abutilon theophrasti, pre-emergence, 312 h, evaluated after 13 days
Outline: as §1

[7] = test system: barnyardgrass (Echinochloa crus-galli); test: Test G Post-Emergence Protocol; conditions: Echinochloa crus-galli, post-emergence, 312 h, read-out: Barnyardgrass damage rating
Outline: (§2)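 Scores run 0 (no damage) to 100 (total damage) and were taken 13 days after spraying. Plants had been raised in pots for 8 days under glasshouse control (24/16 °C, 14 h photoperiod, 65% humidity) and then treated at 15.625, 62.5 or 250 g/ha.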

corn (Zea mays) [8] = test: Test G Post-Emergence Protocol; conditions: Zea mays, post-emergence, 312 h, read-out: Corn damage rating
Outline: as §2

[9] = test system: giant foxtail (Setaria faberi); test: Test G Post-Emergence Protocol; conditions: Setaria faberi, post-emergence, 312 h, read-out: Foxtail, Giant damage rating
Outline: as §2

[10] = test system: ivy-leaved morning glory (Ipomoea hederacea); test: Test G Post-Emergence Protocol; conditions: Ipomoea, post-emergence, 312 h, read-out: Morningglory, Ivy-leaved damage rating
Outline: as §2

[11] = test system: redroot pigweed (Amaranthus retroflexus); test: Test G Post-Emergence Protocol; conditions: Amaranthus retroflexus, post-emergence, 312 h, read-out: Pigweed, Redroot damage rating
Outline: as §2

[12] = test system: velvetleaf (Abutilon theophrasti); test: Test G Post-Emergence Protocol; conditions: Abutilon theophrasti, post-emergence, 312 h, read-out: Velvetleaf damage rating
Outline: as §2

[13] = 15.625 g ai/ha, evaluated after 13 days (100=total damage to plant; 0=no damage to plant)
[14] = 62.5 g ai/ha, evaluated after 13 days, 100=total damage to plant, 0=no damage to plant
[15] = 250 g ai/ha, evaluated after 13 days, 100=total damage to plant, 0=no damage to plant

## CON1C[C@@H](c2cccc(C(F)(F)F)c2)[C@H](C(=O)Nc2cccc(F)c2F)C1=O (racemic) [Compound 1763]
[1]; 15.625 g ai/ha, read-out: Barnyardgrass damage rating (100=total damage to plant; 0=no damage to plant)
  pest or weed control at 15.625 g/ha: 20%
[1]; 62.5 g ai/ha, 100=total damage to plant, 0=no damage to plant, read-out: Barnyardgrass damage rating
  pest or weed control at 62.5 g/ha: 60%
[1]; 250 g ai/ha, read-out: Barnyardgrass damage rating (100=total damage to plant; 0=no damage to plant)
  pest or weed control at 250 g/ha: 80%
Corn (Zea mays) [2]; 15.625 g ai/ha, read-out: Corn damage rating (100=total damage to plant; 0=no damage to plant)
  plant injury at 15.625 g/ha: 0%
Corn (Zea mays) [2]; 62.5 g ai/ha, 100=total damage to plant, 0=no damage to plant, read-out: Corn damage rating
  plant injury at 62.5 g/ha: 50%
Corn (Zea mays) [2]; 250 g ai/ha, read-out: Corn damage rating (100=total damage to plant; 0=no damage to plant)
  plant injury at 250 g/ha: 80%
[3]; 15.625 g ai/ha, read-out: Foxtail, Giant damage rating (100=total damage to plant; 0=no damage to plant)
  pest or weed control at 15.625 g/ha: 80%
[3]; 62.5 g ai/ha, 100=total damage to plant, 0=no damage to plant, read-out: Foxtail, Giant damage rating
  pest or weed control at 62.5 g/ha: 90%
[3]; 250 g ai/ha, read-out: Foxtail, Giant damage rating (100=total damage to plant; 0=no damage to plant)
  pest or weed control at 250 g/ha: 90%
[4]; 15.625 g ai/ha, read-out: Morningglory, Ivy-leaved damage rating (100=total damage to plant; 0=no damage to plant)
  pest or weed control at 15.625 g/ha: 0%
[4]; 62.5 g ai/ha, 100=total damage to plant, 0=no damage to plant, read-out: Morningglory, Ivy-leaved damage rating
  pest or weed control at 62.5 g/ha: 0%
[4]; 250 g ai/ha, read-out: Morningglory, Ivy-leaved damage rating (100=total damage to plant; 0=no damage to plant)
  pest or weed control at 250 g/ha: 20%
[5]; 15.625 g ai/ha, read-out: Pigweed, Redroot damage rating (100=total damage to plant; 0=no damage to plant)
  pest or weed control at 15.625 g/ha: 0%
[5]; 62.5 g ai/ha, 100=total damage to plant, 0=no damage to plant, read-out: Pigweed, Redroot damage rating
  pest or weed control at 62.5 g/ha: 0%
[5]; 250 g ai/ha, read-out: Pigweed, Redroot damage rating (100=total damage to plant; 0=no damage to plant)
  pest or weed control at 250 g/ha: 0%
[6]; 15.625 g ai/ha, read-out: Velvetleaf damage rating (100=total damage to plant; 0=no damage to plant)
  pest or weed control at 15.625 g/ha: 0%
[6]; 62.5 g ai/ha, 100=total damage to plant, 0=no damage to plant, read-out: Velvetleaf damage rating
  pest or weed control at 62.5 g/ha: 0%
[6]; 250 g ai/ha, read-out: Velvetleaf damage rating (100=total damage to plant; 0=no damage to plant)
  pest or weed control at 250 g/ha: 0%
[7]; [13]
  pest or weed control at 15.625 g/ha: 40%
[7]; [14]
  pest or weed control at 62.5 g/ha: 60%
[7]; [15]
  pest or weed control at 250 g/ha: 70%
Corn (Zea mays) [8]; [13]
  plant injury at 15.625 g/ha: 20%
Corn (Zea mays) [8]; [14]
  plant injury at 62.5 g/ha: 20%
Corn (Zea mays) [8]; [15]
  plant injury at 250 g/ha: 70%
[9]; [13]
  pest or weed control at 15.625 g/ha: 60%
[9]; [14]
  pest or weed control at 62.5 g/ha: 60%
[9]; [15]
  pest or weed control at 250 g/ha: 70%
[10]; [13]
  pest or weed control at 15.625 g/ha: 30%
[10]; [14]
  pest or weed control at 62.5 g/ha: 40%
[10]; [15]
  pest or weed control at 250 g/ha: 50%
[11]; [13]
  pest or weed control at 15.625 g/ha: 0%
[11]; [14]
  pest or weed control at 62.5 g/ha: 0%
[11]; [15]
  pest or weed control at 250 g/ha: 20%
[12]; [13]
  pest or weed control at 15.625 g/ha: 0%
[12]; [14]
  pest or weed control at 62.5 g/ha: 10%
[12]; [15]
  pest or weed control at 250 g/ha: 20%
